Data from patent US9066914B2, “Prophylactic or ameliorating agent for pigmentation” (POLA CHEMICAL INDUSTRIES INC., priority 2010, dated 2015).

The compounds below were run on pigmented guinea pigs (assay: Ultraviolet ray-induced pigmentation suppression test using guinea pigs). Settings: 0.5% (w/v) in ethanol, 30 μL once a day for 6 weeks; L* on 43rd day minus L* before UV (300 mJ/cm^2); average ± standard deviation of 8 animals; solvent control −10.07 ± 0.78.
Assay type: in vivo, guinea pig
From the text: The hair of the dorsal skin of each of eight pigmented guinea pigs was removed and shaved using an electrical hair clipper and shaver, and each of the sites was covered with a black cloth having a total of four (two on the top and bottom and two on the right and left) irradiation windows with a size of 2×2 cm, and then irradiated with ultraviolet rays of 300 mJ/cm^2 using FL20S•E30 lamp as a light source. The operation was repeated on days 1, 3, 5, and 8 after the start of the test to induce pigmentation on the four test sites. Compound 3 was dissolved in ethanol at a concentration of 0.5% (w/v) to prepare samples for application. Further, as a control, ethanol was used alone as a sample for application. On the 1st day of the test after the ultraviolet radiation, the application of samples was started. […] The skin brightness (L* value) of each of the test sites was measured by a colorimeter (CR-200, Konica Minolta Holdings, Inc.) before the ultraviolet radiation on the day of the start of application (day 1) and after 6 weeks (on the 43rd day of the test), and a ΔL* value was calculated by subtracting an L* value before the ultraviolet radiation from the L* value on 43rd day of the test. […] Therefore, it can be evaluated that, as the ΔL* value becomes larger (high numerical value), pigmentation is more inhibited.

Row | SMILES | ΔL* value
1 | Cc1ccc(C(=O)NC(CS(=O)(=O)O)C(=O)O)cc1 [L-Isomer of Compound 3, N-(p-toluoyl)cysteic acid] | −8.88 ± 0.54

Same assay, conditions: concentration of 0.5%, applied to the skin

Row | SMILES | suppression of ultraviolet-induced pigmentation (in words)
2 | Cc1ccc(C(=O)NC(CS(=O)(=O)O)C(=O)O)cc1 [L-Isomer of Compound 3, N-(p-toluoyl)cysteic acid] | clearly suppresses the pigmentation

Each compound was assayed on normal human melanocyte (assay: UVB-induced cell activation inhibition test using normal human melanocyte). Settings: formazan (MTT) production ratio, UVB-irradiated DMSO negative control = 100%; UVB 5 mJ/cm^2; 100 mM in DMSO diluted 1,000 times; conditioned medium of normal human keratinocyte; mean of 3 samples.
Assay type: cell-based
Procedure: The inhibitory effect of the compounds on the activation of melanocyte by activating factor produced and released from normal human keratinocyte by the ultraviolet B (UVB) was evaluated by using the index of the cell proliferation of normal human melanocyte.
Normal human keratinocyte (Kurabo Industries, Ltd.) were seeded by Humedia-KG2 medium (Kurabo Industries, Ltd.) at a concentration of 10×10^4 cells/well in 24-well plate. Then, cells were cultured for 24 hours.
The compound was dissolved at a concentration of 100 mM in DMSO, which was diluted 1,000 times with Humedia-KG2 medium and used as a sample solution. As for the positive control group, tranexamic acid was dissolved at a concentration of 100 mM in DMSO, which was diluted 1,000 times with Humedia-KG2 medium as a positive control sample solution. As for the negative control group, DMSO was diluted 1,000 times with Humedia-KG2 medium as a negative control sample solution.
The medium of normal human keratinocyte was exchanged with Humedia-KG2 medium (sample solution) containing the compound at a predetermined concentration and cells were cultured for further 24 hours. After that, the medium was exchanged with PBS (phosphate buffered saline), and cells were irradiated with the ultraviolet B (UVB) at 5 mJ/cm^2 by using an ultraviolet lamp (FL20S•E-30/DMR, Toshiba Medical Supply Co., Ltd.) as a light source. After the ultraviolet radiation, PBS was exchanged with the sample solution. Cells were cultured for further 24 hours, and then the conditioned medium was collected. Normal human melanocyte cells were seeded at the concentration of 3×10^4 cells/well in 96-well plate by a medium of Medium 254 (Kurabo Industries, Ltd.). Cells were cultured for 24 hours. After that, the medium was exchanged with the conditioned medium collected from normal human keratinocyte, and cells were cultured for further 24 hours. After 24 hours, the medium was exchanged with Humedia-KG2 medium containing 0.5 mg/mL of 3-(4,5-dimethyl-2-thiazoyl)-2,5-diphenyl-2H-tetrazolium bromide (MTT), and cultured for 3 hour.
The formazan amount was measured by the absorbances at 570 nm and 690 nm of cell lysate lysed with 2-propanol using a microplate reader (Benchmark Plus, Bio-Rad) by subtracting the absorbance at 690 nm from the absorbance at 570 nm.
The inhibitory effect of each compounds on melanocyte proliferation was calculated as the formazan production ratio (%) when the absorbance of negative control group, which was added DMSO and UVB irradiated, was defined as 100%.
Therefore, the small production ratio of formazan means that the inhibitory effect of the compounds is strong against the activation of melanocyte by the melanocyte activating factor released form keratinocyte.

Row | SMILES | Melanocyte proliferation ratio Average (%)
3 | Cc1ccccc1C(=O)N[C@@H](CS(=O)(=O)O)C(=O)O [L-Isomer of Compound 1, N-(o-Toluoyl)-L-cysteic acid] | 73.7%
4 | Cc1ccc(C(=O)N[C@@H](CS(=O)(=O)O)C(=O)O)cc1 [L-Isomer of Compound 3, N-(p-toluoyl)cysteic acid] | 58.4%
5 | COc1ccc(C(=O)N[C@@H](CS(=O)(=O)O)C(=O)O)cc1 [L-Isomer of Compound 4, N-(p-methoxybenzoyl)cysteic acid] | 65.6%
6 | Cc1ccc(C(=O)NC(CCS(=O)(=O)O)C(=O)O)cc1 (racemic) [Compound 6, N-(p-toluoyl)homocysteic acid] | 71.3%
7 | NC[C@H]1CC[C@H](C(=O)O)CC1 [Tranexamic acid, reference compound] | 80.9%
8 | Cc1cccc(C(=O)N[C@@H](CS(=O)(=O)O)C(=O)O)c1 [L-Isomer of Compound 2, N-(m-toluoyl)cysteic acid] | 77.0%
9 | O=C(N[C@@H](CS(=O)(=O)O)C(=O)O)c1ccc(-c2ccccc2)cc1 [L-Isomer of Compound 5, N-(4-phenylbenzoyl)cysteic acid] | 79.0%
